# Results as given in patent US12493025B2, “Microfluidic device and method of preparing a cell model for disease associated with cancer” (City University of Hong Kong, priority 2020, dated 2025).
# Like-named read-outs stand apart in the source and are kept apart here.
# Experiments:
# [1] = tested on: UMUC-3 bladder cancer cells; test: Cancer cell viability in clusters co-cultured with UTI89 (CT and CL models), Calcein-AM/Hoechst; doxorubicin dose-response; format: cell-based, human; settings: for IC50: Homo sapiens, UMUC3, MOI 1:1, concentration giving 50% cell viability
# Method: For CT models, bacterial suspension was centrifuged for 10,000 rpm for 5 min, and the supernatant was removed and replaced with MEM-α (10% supplemented with FBS, no added penicillin-streptomycin) at final dilutions at the rate of 500:1, 100:1, and 1:1 (bacteria:cell). After seeding and incubating for 24 h, the UMUC-3 cell clusters in the microchannels were stained using Hoechst dye for 30 minutes at 37° C. before infection. After original media with dye in channels was gently removed, the diluted bacterial suspension was added into 9 channels separately, three channels per concentration. The corresponding control group of the two models was obtained at time points before the introduction of bacteria.
# As for CL models, bacteria suspended in MEM a and UMUC-3 cells (no added penicillin-streptomycin) were mixed before seeding at the rate of 500:1, 100:1, and 1:1. The device was incubated at 37° C. with 5% CO2 and in situ imaging and analyzing at 1 h, 9 h, and 24 h, respectively. Besides, an isolated channel only with 24 h cultured UMUC-3 was set as a negative control to indicate the beginning of the infection.
# For fluorescent staining analysis, the nuclear dye Hoechst (Life Technologies) and Calcein-AM (Invitrogen) were added into cell suspension in the channel at dilution of 1:1000 (v/v). After incubating for 30 minutes at 37° C. for staining, the media was gently removed from each channel, and the device could be imaged via Nikon Ci-L fluorescent microscope directly at 10× magnification. The images processing and cell counting under fluorescent staining were done through ImageJ software. For infection analysis imaging, after incubating for 30 minutes with fluorescent dyes and remove the mixture of dyes and media in the channel, the channels were washed with 1×PBS to remove unbound bacteria and treated with 100 μg/mL gentamicin for 2 h to kill the extracellular bacteria, then the device could be imaged directly. […]
# [2] = tested on: UMUC-3 bladder cancer cells; test: Viability of non-infected cancer cells after DNase or Cipro treatment; format: cell-based, human; settings: uninfected control; Cipro 24 h
# [3] = tested on: UMUC-3 bladder cancer cells; test: Cluster size after DNase treatment of coculture (in situ morphology analysis); format: cell-based, human; settings: 0.01 mg/mL DNase, 9 h of infection
# Method: The clusters formed in the microwell after 24 h culture or infection were imaged via an optical microscope by the device put on the objective directly at 40× or 100× magnification. Each channel was shot at three frames at the top, middle and bottom state. The image processing and analysis of cluster size and density were done through ImageJ software.
# (§1) To dissolve the biofilm, 1×DNase (0.01 mg/mL; Sigma-Aldrich) diluted with fresh antibiotic-free culture media were added into channels after 1 h infection, and the device was continually incubated at 37° C. for 8 h. Then downstream in situ analysis was done after removing DNase and washing channels with PBS. The untreated clusters after 9 h infection were set as control.
# [4] = tested on: UMUC-3 bladder cancer cells; test: In situ immunostaining of CD44 and CD24 after DNase treatment; format: cell-based, human; settings: CT model, 9 h after infection
# Method: The infected cell clusters were firstly washed with 1×PBS gently and treated with 100 μg/mL gentamicin for 2 h to kill extracellular bacteria but keep the intracellular ones. Then channels were loaded PBS with antibody dyes at dilution of […] (v/v). After incubating for 30 minutes at room temperature for staining, the PBS was gently removed from each channel, and the stained clusters could be directly observed through a fluorescent microscope.
# as §1
# [5] = tested on: uropathogenic E. coli strain UTI89; test: MIC of ciprofloxacin; format: cell-based, Escherichia coli
compound,measurement,setting,value
DNase,cancer cell viability in the CT model after biofilm disruption by DNase,"[1]; CT model, 9 h infection, more obvious at MOIs 100:1 and 500:1",increased to a level comparable to that in the CL model
same,adverse effect on non-infected cancer cells (viability),[2],neither ciprofloxacin nor DNase had adverse effect
same,cluster size in the CL model after DNase treatment,[3]; CL model,slight increase in cluster size
same,cluster size in the CT model after DNase treatment,[3]; CT model,reverse the effect of cluster size reduction
same,"expression intensity of CD24, DNase-treated vs untreated control",[4],reduced
same,"expression intensity of CD44, DNase-treated vs untreated control",[4],reduced
O=C(O)c1cn(C2CC2)c2cc(N3CCNCC3)c(F)cc2c1=O [ciprofloxacin],MIC,"[5]; Escherichia coli, as printed in Example 7",0.025 µg/mL
same,MIC value,[5]; as printed in legend of FIG. 14C,0.025 µg/mL
COc1cccc2c1C(=O)c1c(O)c3c(c(O)c1C2=O)C[C@@](O)(C(=O)CO)C[C@@H]3O[C@H]1C[C@H](N)[C@H](O)[C@H](C)O1 [doxorubicin],IC50,"[1]; CL model (intratumoral UTI89), read-out: IC50 of doxorubicin on cancer cells with the CL model",1590 nM
same,IC50,"[1]; CT model (extratumoral UTI89), read-out: IC50 of doxorubicin on cancer cells with the CT model",1790 nM
